Where two headings read alike, the source gives them in different places.
Test: Phase I study plasma pharmacokinetics
Type: in vivo, human
Conditions: for AUC(0-inf) / AUC(0-t) / Cmax / AUC / Vd/F / Tmax: human, plasma, oral; for AUC: read-out: AUC24; for Vd/F: read-out: Vz/F; for Tmax: median, read-out: Tmax
Text: The PK parameters of belvarafenib were estimated in 48 patients in the dose-escalation phase and 35 patients in the dose-expansion phase. In the tables: “AUClast” refers to the area under the plasma concentration-time curve from zero time until the last measurable concentration; “AUC0-∞” refers to area under the plasma concentration-time curve from zero time to infinity; “AUC24” refers to the area under the curve from T0 to T24; “Cmax” refers to the maximal concentration; “Tmax” refers to the time to reach Cmax; “T1/2β” refers to the terminal elimination half-life; “QD” refers to once a day; and “BID” refers to twice a day. […] Mean and coefficient of variation are presented except for Tmax where median and range are presented. One patient in the 200 QD dosing regimen who took concomitant rifampin was removed from the analysis because the AUC and Cmax of the patient were much lower than those of the others in the same cohort, which, without being bound to any particular theory, could have resulted from the drug-metabolizing enzyme induction by rifampin through which belvarafenib is biotransformed.

[1] = Day 1 first dose, 50 mg/day QD, n=3, mean
[2] = Day 1 first dose, 100 mg/day QD, n=3, mean
[3] = Day 1 first dose, 200 mg/day QD, n=6, mean
[4] = Day 1 first dose, 200 mg/day QD, n=7, mean
[5] = Day 1 first dose, 400 mg/day BID, n=11, mean
[6] = Day 1 first dose, 600 mg/day BID, n=7, mean
[7] = Day 1 first dose, 600 mg/day QD, n=6, mean
[8] = Day 1 first dose, 900 mg/day BID, n=8, mean
[9] = Day 1 first dose, 1300 mg/day BID, n=6, mean
[10] = Day 1 first dose, 1600 mg/day BID, n=6, mean
[11] = Multiple administrations Day 17, 50 mg/day QD, n=2, mean
[12] = Multiple administrations Day 22, 100 mg/day QD, n=3, mean
[13] = Multiple administrations Day 22, 200 mg/day QD, n=5, mean
[14] = Multiple administrations Day 22, 200 mg/day QD, n=6, mean
[15] = Multiple administrations Day 22, 400 mg/day BID, n=8, mean
[16] = 50 mg/day, Multiple administrations Day 17, 50 mg/day QD, n=2, mean
[17] = 100 mg/day, Multiple administrations Day 22, 100 mg/day QD, n=3, mean
[18] = 200 mg/day, Multiple administrations Day 22, 200 mg/day QD, n=5, mean
[19] = 200 mg/day, Multiple administrations Day 22, 200 mg/day QD, n=6, mean
[20] = 400 mg/day, Multiple administrations Day 22, 400 mg/day BID, n=8, mean
[21] = 600 mg/day, Multiple administrations Day 22, 600 mg/day BID, n=6, mean

## Cc1ccc2c(Nc3cccc(Cl)c3F)nccc2c1NC(=O)c1csc2c(N)ncnc12 [Belvarafenib]
[1]
  CL/F: 2.5 L/h
  T1/2β: 51.6 h
[2]
  CL/F: 2.5 L/h
  T1/2β: 55.3 h
[3]
  CL/F: 7.3 L/h
  T1/2β: 57.7 h
[4]
  CL/F: 15.4 L/h
  T1/2β: 50.5 h
[5]
  CL/F: 7.8 L/h
  T1/2β: 70.7 h
[6]
  CL/F: 7.7 L/h
  T1/2β: 86.6 h
[7]
  CL/F: 9.9 L/h
  T1/2β: 58.9 h
[8]
  CL/F: 5.7 L/h
  T1/2β: 84.3 h
[9]
  CL/F: 9.0 L/h
  T1/2β: 77.4 h
[10]
  CL/F: 14.5 L/h
  T1/2β: 215.8 h
[11]
  CL/F: 0.6 L/h
  T1/2β: 70.7 h
[12]
  CL/F: 0.9 L/h
  T1/2β: 106.1 h
[13]
  CL/F: 1.3 L/h
  T1/2β: 69.8 h
[14]
  CL/F: 2.4 L/h
  T1/2β: 65.1 h
[15]
  CL/F: 3.3 L/h
  T1/2β: 41.2 h
Multiple administrations Day 22, 600 mg/day BID, n=6, mean
  T1/2β: 52.3 h
Multiple administrations Day 22, 600 mg/day BID, n=6, mean (CV)
  CL/F: 2.2 (63.3) L/h
Multiple administrations Day 22, 600 mg/day QD, n=6, mean
  T1/2β: 97.7 h
Multiple administrations Day 22, 600 mg/day QD, n=6, mean (CV)
  CL/F: 3.4 (81.8) L/h
Multiple administrations Day 22, 900 mg/day BID, n=7, mean
  T1/2β: 32.3 h
Multiple administrations Day 22, 900 mg/day BID, n=7, mean (CV)
  CL/F: 3.8 (50.7) L/h
Multiple administrations Day 22, 1300 mg/day BID, n=6, mean
  T1/2β: 66.4 h
Multiple administrations Day 22, 1300 mg/day BID, n=6, mean (CV)
  CL/F: 2.7 (54.7) L/h
Multiple administrations Day 22, 1600 mg/day BID, n=4, mean
  T1/2β: 42.7 h
Multiple administrations Day 22, 1600 mg/day BID, n=4, mean (CV)
  CL/F: 14.8 (61.2) L/h
From 50 mg QD to 650 mg BID
  mean plasma concentration versus dose: linearity in a dose-proportional manner
[16]
  AUC(0-inf): 88.8 µg·h/mL
  AUC(0-t): 18900 ng·h/mL
  Cmax: 1120 ng/mL
  AUC: 18900 ng·h/mL
  Vd/F: 57.6 L
50 mg/day, Multiple administrations Day 17, 50 mg/day QD, n=2
  Tmax: 3 h
[17]
  AUC(0-inf): 349 µg·h/mL
  AUC(0-t): 41900 ng·h/mL
  Cmax: 1990 ng/mL
  AUC: 42000 ng·h/mL
  Vd/F: 62.7 L
100 mg/day, Multiple administrations Day 22, 100 mg/day QD, n=3
  Tmax: 5 h
[18]
  AUC(0-inf): 239 µg·h/mL
  AUC(0-t): 48200 ng·h/mL
  Cmax: 2520 ng/mL
  AUC: 48200 ng·h/mL
  Vd/F: 116 L
200 mg/day, Multiple administrations Day 22, 200 mg/day QD, n=5
  Tmax: 3.2 h
[19]
  AUC(0-inf): 203 µg·h/mL
  AUC(0-t): 41600 ng·h/mL
  Cmax: 2210 ng/mL
  AUC: 41700 ng·h/mL
  Vd/F: 178 L
200 mg/day, Multiple administrations Day 22, 200 mg/day QD, n=6
  Tmax: 3.1 h
[20]
  AUC(0-inf): 207 µg·h/mL
  AUC(0-t): 67500 ng·h/mL
  Cmax: 3210 ng/mL
  AUC: 68900 ng·h/mL
  Vd/F: 157 L
400 mg/day, Multiple administrations Day 22, 400 mg/day BID, n=8
  Tmax: 13.1 h
[21]
  AUC(0-inf): 507 µg·h/mL
  AUC(0-t): 116000 ng·h/mL
  Cmax: 5700 ng/mL
  AUC: 120000 ng·h/mL
  Vd/F: 122 L
600 mg/day, Multiple administrations Day 22, 600 mg/day BID, n=6
  Tmax: 3.4 h
